Assay results from patent US9302999B2, “Substituted triazoles as herbicides” (E. I. DU PONT DE NEMOURS AND COMPANY, priority 2012, dated 2016).

Columns and labels:
Format in all cases: in vivo
[1] = system: barnyardgrass (Echinochloa crus-galli); experiment: Test A pre-/postemergence: barnyardgrass; conditions: for Barnyardgrass plant response rating: Postemergence; for Plant response rating, Barnyardgrass: Preemergence
Procedure, shortened: (§1)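 Pre: directed soil spray after planting in loam + sand. Post: same formulation (non-phytotoxic solvent + surfactant) on 1–2-leaf plants, 2–10 cm. Greenhouse ~10 d; visual injury 0–100 vs untreated.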

[2] = system: crabgrass, large (large crabgrass, Digitaria sanguinalis); experiment: Test A pre-/postemergence: crabgrass, large; conditions: for Crabgrass, Large plant response rating: Postemergence; for Plant response rating, Crabgrass, Large: Preemergence
Procedure, shortened: as §1

[3] = system: foxtail, giant (giant foxtail, Setaria faberii); experiment: Test A pre-/postemergence: foxtail, giant; conditions: for Foxtail, Giant plant response rating: Postemergence; for Plant response rating, Foxtail, Giant: Preemergence
Procedure, shortened: as §1

[4] = system: morningglory (Ipomoea spp.); experiment: Test A pre-/postemergence: morningglory
Procedure, shortened: as §1

[5] = system: pigweed (Amaranthus retroflexus); experiment: Test A pre-/postemergence: pigweed
Procedure, shortened: as §1

[6] = system: velvetleaf (Abutilon theophrasti); experiment: Test A pre-/postemergence: velvetleaf
Procedure, shortened: as §1

[7] = system: wheat (Triticum aestivum); experiment: Test A pre-/postemergence: wheat
Procedure, shortened: as §1

[8] = system: corn (Zea mays); experiment: Test A pre-/postemergence: corn; conditions: for Corn plant response rating: Postemergence; for Plant response rating, Corn: Preemergence
Procedure, shortened: as §1

[9] = system: rice (Oryza sativa); experiment: Test B flooded paddy: rice; conditions: Flood; 250 g ai/ha; applied to paddy water at 2-leaf stage; visually evaluated after 13 to 15 days
Procedure, shortened: (§2)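 At two leaves, seedlings received the test compound via the paddy water, pots having been flooded 3 cm over the soil surface and kept so. Greenhouse-held for 13 to 15 days, then judged by eye against controls on a scale running 0 (no effect) to 100 (complete control).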

[10] = system: sedge, umbrella (small-flower umbrella sedge Cyperus difformis); experiment: Test B flooded paddy: sedge, umbrella; conditions: Flood; 250 g ai/ha; applied to paddy water at 2-leaf stage; visually evaluated after 13 to 15 days
Procedure, shortened: as §2

[11] = system: ducksalad (Heteranthera limosa); experiment: Test B flooded paddy: ducksalad; conditions: Flood; 250 g ai/ha; applied to paddy water at 2-leaf stage; visually evaluated after 13 to 15 days
Procedure, shortened: as §2

[12] = system: barnyardgrass (Echinochloa crus-galli); experiment: Test B flooded paddy: barnyardgrass; conditions: Flood; 250 g ai/ha; applied to paddy water at 2-leaf stage; visually evaluated after 13 to 15 days
Procedure, shortened: as §2

[13] = 125 g ai/ha, 0 to 100 scale, 0 is no effect, 100 is complete control
[14] = 500 g ai/ha, visual rating on 0 to 100 scale (0 no effect, 100 complete control), approximately ten days
[15] = 125 g ai/ha, 0 to 100 scale (0 no effect, 100 complete control)
[16] = 500 g ai/ha, 0 to 100 scale, 0 is no effect, 100 is complete control
[17] = Preemergence, 125 g ai/ha, 0 to 100 scale (0 no effect, 100 complete control)
[18] = Preemergence, 500 g ai/ha, 0 to 100 scale, 0 is no effect, 100 is complete control
[19] = Postemergence, 125 g ai/ha, 0 to 100 scale, 0 is no effect, 100 is complete control
[20] = Postemergence, 500 g ai/ha, visual rating on 0 to 100 scale (0 no effect, 100 complete control), approximately ten days
[21] = 125 g ai/ha, 0 to 100 scale where 0 is no effect and 100 is complete control
[22] = 500 g ai/ha, 0 to 100 scale (0 no effect, 100 complete control)
[23] = Preemergence, 125 g ai/ha, 0 to 100 scale where 0 is no effect and 100 is complete control
[24] = Preemergence, 500 g ai/ha, 0 to 100 scale (0 no effect, 100 complete control)

With `Cc1nn(-c2ccc(F)cc2)nc1Oc1ccc(F)c(C(F)(F)F)c1` [Compound 56] the “Barnyardgrass plant response rating” value [1, 13] was 10, the “Barnyardgrass plant response rating” value [1, 14] was 30 and the “Plant response rating, Barnyardgrass” value [1, 15] was 0. For the same compound, the “Plant response rating, Barnyardgrass” value [1, 16] was 80, the “Crabgrass, Large plant response rating” value [2, 13] was 50 and the “Crabgrass, Large plant response rating” value [2, 14] was 80. For the same compound, the “Plant response rating, Crabgrass, Large” value [2, 15] was 90, the “Plant response rating, Crabgrass, Large” value [2, 16] was 100 and the “Foxtail, Giant plant response rating” value [3, 13] was 20. The “Foxtail, Giant plant response rating” value [3, 14] was 80, the “Plant response rating, Foxtail, Giant” value [3, 15] was 30 and the “Plant response rating, Foxtail, Giant” value [3, 16] was 100. For the same compound, the “Plant response rating, Morningglory” value [4, 17] was 0, the “Plant response rating, Morningglory” value [4, 18] was 10 and the “Pigweed plant response rating” value [5, 19] was 100. The “Pigweed plant response rating” value [5, 20] was 100, the “Plant response rating, Pigweed” value [5, 17] was 30 and the “Plant response rating, Pigweed” value [5, 18] was 90. For the same compound, the “Velvetleaf plant response rating” value [6, 19] was 40, the “Velvetleaf plant response rating” value [6, 20] was 90 and the “Plant response rating, Velvetleaf” value [6, 17] was 0. For the same compound, the “Plant response rating, Velvetleaf” value [6, 18] was 10, the “Wheat plant response rating” value [7, 19] was 10 and the “Wheat plant response rating” value [7, 20] was 20. For the same compound, the “Plant response rating, Wheat” value [7, 17] was 0, the “Plant response rating, Wheat” value [7, 18] was 10 and the “Corn plant response rating” value [8, 13] was 10. For the same compound, the “Corn plant response rating” value [8, 14] was 20, the “Plant response rating, Corn” value [8, 15] was 0 and the “Plant response rating, Corn” value [8, 16] was 10. The “Plant response rating, Rice (0 to 100 scale, 0 is no effect, 100 is complete control)” value [9] was 40, the “Plant response rating, Sedge, Umbrella (0 to 100 scale, 0 is no effect, 100 is complete control)” value [10] was 80 and the “Plant response rating, Ducksalad (0 to 100 scale, 0 is no effect, 100 is complete control)” value [11] was 80. For the same compound, the “Plant response rating, Barnyardgrass (0 to 100 scale, 0 is no effect, 100 is complete control)” value [12] was 30.

With `Cc1nn(-c2ccc(F)cc2Cl)nc1Cc1ccnc(C(F)(F)F)c1` [Compound 65] the “Barnyardgrass plant response rating” value [1, 13] was 10, the “Barnyardgrass plant response rating” value [1, 14] was 40 and the “Plant response rating, Barnyardgrass” value [1, 15] was 10. The “Plant response rating, Barnyardgrass” value [1, 16] was 70, the “Crabgrass, Large plant response rating” value [2, 13] was 20 and the “Crabgrass, Large plant response rating” value [2, 14] was 50. For the same compound, the “Plant response rating, Crabgrass, Large” value [2, 15] was 30, the “Plant response rating, Crabgrass, Large” value [2, 16] was 100 and the “Foxtail, Giant plant response rating” value [3, 13] was 20. The “Foxtail, Giant plant response rating” value [3, 14] was 70, the “Plant response rating, Foxtail, Giant” value [3, 15] was 90 and the “Plant response rating, Foxtail, Giant” value [3, 16] was 100. For the same compound, the “Plant response rating, Morningglory” value [4, 17] was 10, the “Plant response rating, Morningglory” value [4, 18] was 20 and the “Pigweed plant response rating” value [5, 19] was 90. For the same compound, the “Pigweed plant response rating” value [5, 20] was 100, the “Plant response rating, Pigweed” value [5, 17] was 80 and the “Plant response rating, Pigweed” value [5, 18] was 100. The “Velvetleaf plant response rating” value [6, 19] was 30, the “Velvetleaf plant response rating” value [6, 20] was 60 and the “Plant response rating, Velvetleaf” value [6, 17] was 0. The “Plant response rating, Velvetleaf” value [6, 18] was 10, the “Wheat plant response rating” value [7, 19] was 0 and the “Wheat plant response rating” value [7, 20] was 20. The “Plant response rating, Wheat” value [7, 17] was 0, the “Plant response rating, Wheat” value [7, 18] was 0 and the “Corn plant response rating” value [8, 13] was 10. The “Corn plant response rating” value [8, 14] was 20, the “Plant response rating, Corn” value [8, 15] was 0 and the “Plant response rating, Corn” value [8, 16] was 10. The “Plant response rating, Rice (0 to 100 scale, 0 is no effect, 100 is complete control)” value [9] was 25, the “Plant response rating, Sedge, Umbrella (0 to 100 scale, 0 is no effect, 100 is complete control)” value [10] was 75 and the “Plant response rating, Ducksalad (0 to 100 scale, 0 is no effect, 100 is complete control)” value [11] was 60. The “Plant response rating, Barnyardgrass (0 to 100 scale, 0 is no effect, 100 is complete control)” value [12] was 30.

`Cc1cc(Oc2nn(-c3ccc(F)cc3)nc2C)ccc1F` [Compound 86] was tested, and the “Barnyardgrass plant response rating” value [1, 13] was 0, the “Barnyardgrass plant response rating” value [1, 14] was 0 and the “Plant response rating, Barnyardgrass” value [1, 15] was 0. For the same compound, the “Plant response rating, Barnyardgrass” value [1, 16] was 0, the “Crabgrass, Large plant response rating” value [2, 13] was 0 and the “Crabgrass, Large plant response rating” value [2, 14] was 0. For the same compound, the “Plant response rating, Crabgrass, Large” value [2, 15] was 0, the “Plant response rating, Crabgrass, Large” value [2, 16] was 0 and the “Foxtail, Giant plant response rating” value [3, 13] was 0. The “Foxtail, Giant plant response rating” value [3, 14] was 0, the “Plant response rating, Foxtail, Giant” value [3, 15] was 0 and the “Plant response rating, Foxtail, Giant” value [3, 16] was 0. For the same compound, the “Morningglory plant response rating” value [4, 19] was 0, the “Morningglory plant response rating” value [4, 20] was 0 and the “Plant response rating, Morningglory” value [4, 17] was 0. For the same compound, the “Plant response rating, Morningglory” value [4, 18] was 0, the “Pigweed plant response rating” value [5, 19] was 0 and the “Pigweed plant response rating” value [5, 20] was 0. For the same compound, the “Plant response rating, Pigweed” value [5, 17] was 0, the “Plant response rating, Pigweed” value [5, 18] was 0 and the “Velvetleaf plant response rating” value [6, 19] was 0. For the same compound, the “Velvetleaf plant response rating” value [6, 20] was 0, the “Plant response rating, Velvetleaf” value [6, 17] was 0 and the “Plant response rating, Velvetleaf” value [6, 18] was 0. For the same compound, the “Wheat plant response rating” value [7, 19] was 0, the “Wheat plant response rating” value [7, 20] was 0 and the “Plant response rating, Wheat” value [7, 17] was 0. For the same compound, the “Plant response rating, Wheat” value [7, 18] was 0, the “Corn plant response rating” value [8, 13] was 0 and the “Corn plant response rating” value [8, 14] was 0. For the same compound, the “Plant response rating, Corn” value [8, 15] was 0, the “Plant response rating, Corn” value [8, 16] was 0 and the “Plant response rating, Rice (0 to 100 scale, 0 is no effect, 100 is complete control)” value [9] was 0. For the same compound, the “Plant response rating, Sedge, Umbrella (0 to 100 scale, 0 is no effect, 100 is complete control)” value [10] was 50, the “Plant response rating, Ducksalad (0 to 100 scale, 0 is no effect, 100 is complete control)” value [11] was 0 and the “Plant response rating, Barnyardgrass (0 to 100 scale, 0 is no effect, 100 is complete control)” value [12] was 0.

For `CCc1nn(-c2cccc(C(F)(F)F)c2)nc1Cc1cccc(C(F)(F)F)c1` [Compound 143], the “Barnyardgrass plant response rating” value [1, 13] was 20, the “Barnyardgrass plant response rating” value [1, 14] was 50 and the “Plant response rating, Barnyardgrass” value [1, 21] was 30. For the same compound, the “Plant response rating, Barnyardgrass” value [1, 22] was 90, the “Crabgrass, Large plant response rating” value [2, 13] was 80 and the “Crabgrass, Large plant response rating” value [2, 14] was 100. For the same compound, the “Plant response rating, Crabgrass, Large” value [2, 21] was 90, the “Plant response rating, Crabgrass, Large” value [2, 22] was 100 and the “Foxtail, Giant plant response rating” value [3, 13] was 80. For the same compound, the “Foxtail, Giant plant response rating” value [3, 14] was 100, the “Plant response rating, Foxtail, Giant” value [3, 21] was 90 and the “Plant response rating, Foxtail, Giant” value [3, 22] was 100. The “Plant response rating, Morningglory” value [4, 19] was 50, the “Morningglory plant response rating” value [4, 20] was 90 and the “Plant response rating, Morningglory” value [4, 23] was 0. For the same compound, the “Plant response rating, Morningglory” value [4, 24] was 0, the “Plant response rating, Pigweed” value [5, 19] was 100 and the “Pigweed plant response rating” value [5, 20] was 100. The “Plant response rating, Pigweed” value [5, 23] was 100, the “Plant response rating, Pigweed” value [5, 24] was 100 and the “Plant response rating, Velvetleaf” value [6, 19] was 40. The “Velvetleaf plant response rating” value [6, 20] was 80, the “Plant response rating, Velvetleaf” value [6, 23] was 0 and the “Plant response rating, Velvetleaf” value [6, 24] was 20. For the same compound, the “Plant response rating, Wheat” value [7, 19] was 10, the “Wheat plant response rating” value [7, 20] was 40 and the “Plant response rating, Wheat” value [7, 23] was 0. The “Plant response rating, Wheat” value [7, 24] was 10, the “Corn plant response rating” value [8, 13] was 40 and the “Corn plant response rating” value [8, 14] was 50. For the same compound, the “Plant response rating, Corn” value [8, 21] was 0, the “Plant response rating, Corn” value [8, 22] was 20 and the “Plant response rating, Rice (0 to 100 scale, 0 is no effect, 100 is complete control)” value [9] was 30. The “Plant response rating, Sedge, Umbrella (0 to 100 scale, 0 is no effect, 100 is complete control)” value [10] was 75, the “Plant response rating, Ducksalad (0 to 100 scale, 0 is no effect, 100 is complete control)” value [11] was 0 and the “Plant response rating, Barnyardgrass (0 to 100 scale, 0 is no effect, 100 is complete control)” value [12] was 40.
